Reference: US4308181A, “Polypeptide compositions” (American Home Products Corporation, priority 1980, dated 1981)
Residues, ends and D or L forms follow the SMILES beside them.

System: T lymphocytes isolated from spleens of male CBA/J or NZB mice
Test: T lymphocyte proliferation, 3H-thymidine uptake
Type: cell-based
Settings: 48 h culture
Protocol: The activity of the compounds of the Examples is determined according to the following procedure:
T lymphocytes are isolated from spleens of male CBA/J or NZB mice. Cell homogenates are prepared in Hank's balanced salt solution (HBSS). After removal of larger particles and repeated washing of the cells in HBSS they are suspended in minimum essential medium (MEM) and passed through a glass wool column to remove macrophages. The cells are then incubated on a nylon wool column at 37° C., 95% air, 5% CO2, for 45 minutes. The non-adherant T lymphocytes are then eluted from the column, counted, and adjusted to 20×10^6 cells/ml. 50 μl. of cells are cultured (37° C., 95% air, 5% CO2) with compound, for 48 hours before addition of 0.5 μCi. of 3H-thymidine for the last 16 hours of culture. The total volume of the culture system is 200 μ l. The cells are then harvested on a multiple automatic sample harvester (MashII), the glass fiber filter disks placed in 10 ml. of xylene base scintillation fluid, and counted for 1 minute in a liquid scintillation counter. Results are reported as CPM+SE. Comparisons are made between counts obtained with control cultures and cultures containing compound and a determination made as to whether the compounds are active at the dosage tested.

[1] = 0.75 ng/culture, run with control 19,275 ± 1298
[2] = 1.5 ng/culture, run with control 9,876 ± 951
[3] = 1.5 ng/culture, run with control 19,275 ± 1298
[4] = 6.0 ng/culture, run with control 9,876 ± 951
[5] = 6.0 ng/culture, run with control 19,275 ± 1298
[6] = 25 ng/culture, run with control 9,876 ± 951
[7] = 100 ng/culture, run with control 9,876 ± 951

CC(=O)NCC(=O)N[C@@H](CO)C(=O)N[C@@H](Cc1c[nH]cn1)C(=O)N[C@@H](CC(C)C)C(N)=O [Ac--Gly--Ser--His--Leu--NH2, N-acetylglycyl-L-seryl-L-histidyl-L-leucinaminde, acetate] (Ac-GSHL-NH2)
H-Thymidine Uptake CPM + S.E. [1]: 41,019 ± 6047 CPM | H-Thymidine Uptake CPM + S.E. [2]: 15,028 ± 1178 CPM | H-Thymidine Uptake CPM + S.E. [3]: 48,033 ± 5499 CPM | H-Thymidine Uptake CPM + S.E. [4]: 19,423 ± 1031 CPM | H-Thymidine Uptake CPM + S.E. [5]: 38,254 ± 7188 CPM | H-Thymidine Uptake CPM + S.E. [6]: 19,433 ± 3092 CPM | H-Thymidine Uptake CPM + S.E. [7]: 20,409 ± 4081 CPM

CC(=O)N[C@@H](CO)C(=O)N[C@@H](Cc1c[nH]cn1)C(=O)N[C@@H](CC(C)C)C(=O)N[C@H](C(N)=O)C(C)C.CC(=O)O [Ac--Ser--His--Leu--Val--NH2, N-acetylseryl-L-histidyl-L-leucyl-L-valinamide, acetate] (Ac-SHLV-NH2)
H-Thymidine Uptake CPM + S.E. [1]: 26,137 ± 6158 CPM | H-Thymidine Uptake CPM + S.E. [2]: 30,925 ± 3256 CPM | H-Thymidine Uptake CPM + S.E. [3]: 32,646 ± 2284 CPM | H-Thymidine Uptake CPM + S.E. [4]: 26,741 ± 3049 CPM | H-Thymidine Uptake CPM + S.E. [5]: 30,425 ± 8896 CPM | H-Thymidine Uptake CPM + S.E. [6]: 28,206 ± 2233 CPM | H-Thymidine Uptake CPM + S.E. (25 ng/culture, run with control 19,275 ± 1298): 32,278 ± 5373 CPM | H-Thymidine Uptake CPM + S.E. [7]: 20,758 ± 3027 CPM
